Test results reported in ChEMBL document CHEMBL1130335, “Comparative molecular field analysis of a series of paclitaxel analogues” (J Med Chem, 1997).

Experiment: Measured activity expressed as ID50 (analogue)/ID50 (paclitaxel), where ID50 is the concentration of compound leading to 50% inhibition of the rate microtubule disassembly
Type: functional

| SMILES | Activity |
| --- | --- |
| CC(=O)O[C@@H]1C2=C(C)[C@@H](OC(=O)[C@H](O)[C@@H](NC(=O)OC(C)(C)C)[C@H]3COC(C)(C)O3)C[C@@](O)([C@@H](OC(=O)c3ccccc3)[C@H]3[C@@](C)([C@@H](O)CC4OC[C@]43OC(C)=O)[C@H]1O)C2(C)C (some centres undefined) | 7.91 |
| CC(=O)O[C@H]1C(=O)[C@]2(C)[C@@H](O)CC3OC[C@@]3(OC(C)=O)[C@H]2[C@H](OC(=O)c2ccccc2)[C@]2(O)C[C@H](OC(=O)[C@H](O)[C@H](NC(=O)c3ccc(Cl)cc3)c3ccccc3)C(C)=C1C2(C)C (some centres undefined) | 2.4 |
| CC(=O)O[C@@H]1C2=C(C)[C@@H](OC(=O)[C@H](O)[C@@H](NC(=O)OC(C)C)c3ccccc3)C[C@@](O)([C@@H](OC(=O)c3ccccc3)[C@H]3[C@@](C)([C@@H](O)CC4OC[C@]43OC(C)=O)[C@H]1O)C2(C)C (some centres undefined) | 0.75 |
| CC(=O)O[C@H]1C(=O)[C@]2(C)[C@@H](O)CC3OC[C@@]3(OC(C)=O)[C@H]2[C@H](OC(=O)c2ccccc2)[C@]2(O)C[C@H](OC(=O)[C@H](NC(=O)c3ccccc3)[C@H](O)c3ccccc3)C(C)=C1C2(C)C (some centres undefined) | 10 |
| CC(=O)O[C@H]1C(=O)[C@]2(C)[C@@H](O)CC3OC[C@@]3(OC(C)=O)[C@H]2[C@H](OC(=O)c2ccccc2)[C@]2(O)C[C@H](OC(=O)[C@H](O)[C@H](NC(=O)c3ccc(C)cc3)c3ccccc3)C(C)=C1C2(C)C (some centres undefined) | 1.1 |
| CC(=O)O[C@@]12COC1C[C@H](O)[C@@]1(C)C(=O)[C@H](O)C3=C(C)[C@@H](OC(=O)[C@@H](O)[C@H](N)c4ccccc4)C[C@@](O)([C@@H](OC(=O)c4ccccc4)[C@@H]12)C3(C)C (some centres undefined) | 30 |
| CC(=O)O[C@@]12COC1C[C@H](O)[C@@]1(C)C(=O)[C@H](O)C3=C(C)[C@@H](OC(=O)[C@H](O)[C@@H](C=C(C)C)NC(=O)OC(C)(C)C)C[C@@](O)([C@@H](OC(=O)c4ccccc4)[C@@H]12)C3(C)C (some centres undefined) | 0.64 |
| CC(=O)O[C@@H]1C2=C(C)[C@@H](OC(=O)[C@H](O)[C@H](C)NC(=O)OC(C)(C)C)C[C@@](O)([C@@H](OC(=O)c3ccccc3)[C@H]3[C@@](C)([C@@H](O)CC4OC[C@]43OC(C)=O)[C@H]1O)C2(C)C (some centres undefined) | 1.08 |
| COC[C@H](NC(=O)c1ccccc1)[C@@H](O)C(=O)O[C@H]1C[C@@]2(O)[C@@H](OC(=O)c3ccccc3)[C@H]3[C@@](C)([C@@H](O)CC4OC[C@]43OC(C)=O)[C@@H](O)[C@H](OC(C)=O)C(=C1C)C2(C)C (some centres undefined) | 3.14 |
| CC(=O)O[C@H]1C(=O)[C@]2(C)[C@@H](O)CC3OC[C@@]3(OC(C)=O)[C@H]2[C@H](OC(=O)c2ccccc2)[C@]2(O)C[C@H](OC(=O)[C@H](O)[C@H](NC(=O)c3ccco3)c3ccccc3)C(C)=C1C2(C)C (some centres undefined) | 0.8 |
| CC(=O)O[C@H]1C(=O)[C@]2(C)[C@@H](O)CC3OC[C@@]3(OC(C)=O)[C@H]2[C@H](OC(=O)c2ccccc2)[C@]2(O)C[C@H](OC(=O)[C@H](O)[C@H](NC(=O)CC(C)C)c3ccccc3)C(C)=C1C2(C)C (some centres undefined) | 1.9 |
| CC(=O)O[C@@]12COC1C[C@H](O)[C@@]1(C)C(=O)[C@H](O)C3=C(C)[C@@H](OC(=O)[C@H](O)[C@H](NC(=O)OC(C)(C)C)c4ccccc4)C[C@@](O)([C@@H](OC(=O)c4ccccc4)[C@@H]12)C3(C)C (some centres undefined) | 0.6 |
| CC(=O)O[C@@]12COC1C[C@H](O)[C@@]1(C)C(=O)[C@H](O)C3=C(C)[C@@H](OC(=O)[C@H](O)[C@@H](NC(=O)OC(C)(C)C)c4ccccc4)[C@H](O)[C@@](O)([C@@H](OC(=O)c4ccccc4)[C@@H]12)C3(C)C (some centres undefined) | 0.8 |
| CO[C@H]1[C@H](OC(C)=O)C2=C(C)[C@@H](OC(=O)[C@H](O)[C@@H](NC(=O)OC(C)(C)C)c3ccccc3)C[C@@](O)([C@@H](OC(=O)c3ccccc3)[C@H]3[C@@]1(C)[C@@H](O)CC1OC[C@]13OC(C)=O)C2(C)C (some centres undefined) | 0.51 |
| CC(=O)O[C@@H]1C2=C(C)[C@@H](OC(=O)[C@H](O)[C@@H](NC(=O)OC(C)(C)C)C3CCCCC3)C[C@@](O)([C@@H](OC(=O)c3ccccc3)[C@H]3[C@@](C)([C@@H](O)CC4OC[C@]43OC(C)=O)[C@H]1O)C2(C)C (some centres undefined) | 0.57 |
| CC(=O)O[C@H]1C(=O)[C@]2(C)[C@@H](O)CC3OC[C@@]3(OC(C)=O)[C@H]2[C@H](OC(=O)c2ccccc2)[C@]2(O)C[C@H](OC(=O)[C@H](O)[C@H](NC(=O)C(C)(C)C)c3ccccc3)C(C)=C1C2(C)C (some centres undefined) | 2.6 |
| CC(=O)O[C@@]12COC1C[C@H](O)[C@@]1(C)C(=O)[C@H](O)C3=C(C)[C@@H](OC(=O)[C@H](O)[C@@H](CC(C)C)NC(=O)OC(C)(C)C)C[C@@](O)([C@@H](OC(=O)c4ccccc4)[C@@H]12)C3(C)C (some centres undefined) | 0.78 |
| CC(=O)O[C@H]1C(=O)[C@]2(C)[C@@H](O)CC3OC[C@@]3(OC(C)=O)[C@H]2[C@H](OC(=O)c2ccccc2)[C@]2(O)C[C@H](OC(=O)[C@H](O)[C@H](NC(=O)c3ccccc3)c3ccc(Cl)c(Cl)c3)C(C)=C1C2(C)C (some centres undefined) | 7.1 |
| CO[C@H]1[C@H](OC(C)=O)C2=C(C)[C@@H](OC(=O)[C@H](O)[C@@H](NC(=O)c3ccccc3)c3ccccc3)C[C@@](O)([C@@H](OC(=O)c3ccccc3)[C@H]3[C@@]1(C)[C@@H](O)CC1OC[C@]13OC(C)=O)C2(C)C (some centres undefined) | 0.35 |
| CC(=O)O[C@H]1C(=O)[C@]2(C)[C@@H](O)CC3OC[C@@]3(OC(C)=O)[C@H]2[C@H](OC(=O)c2ccccc2)[C@]2(O)C[C@H](OC(=O)[C@H](O)[C@H](NC(=O)c3ccccc3)c3ccc(O)cc3)C(C)=C1C2(C)C (some centres undefined) | 0.8 |

| SMILES | Activity |
| --- | --- |
| CC(=O)O[C@H]1C(=O)[C@]2(C)[C@@H](O)CC3OC[C@@]3(OC(C)=O)[C@H]2[C@H](OC(=O)c2ccccc2)[C@]2(O)C[C@H](OC(=O)[C@H](O)[C@H](NC(=O)OC(C)(C)C)c3ccccc3)C(C)=C1C2(C)C (some centres undefined) | 0.5 |
| COC(=O)[C@H]1CC2OC[C@@]2(OC(C)=O)[C@H]2[C@H](OC(=O)c3ccccc3)[C@]3(O)C[C@H](OC(=O)[C@H](O)[C@@H](NC(=O)c4ccccc4)c4ccccc4)C(C)=C([C@@H](OC(C)=O)[C@H](C(=O)OC)[C@]12C)C3(C)C (some centres undefined) | 0.91 |
| CC(=O)O[C@@]12COC1C[C@H](O)[C@@]1(C)C(=O)[C@H](O)C3=C(C)[C@@H](OC(=O)[C@H](NC(=O)OC(C)(C)C)[C@H](O)c4ccccc4)C[C@@](O)([C@@H](OC(=O)c4ccccc4)[C@@H]12)C3(C)C (some centres undefined) | 10 |
| CO[C@H]1CC2OC[C@@]2(OC(C)=O)[C@H]2[C@H](OC(=O)c3ccccc3)[C@]3(O)C[C@H](OC(=O)[C@H](O)[C@@H](NC(=O)OC(C)(C)C)c4ccccc4)C(C)=C([C@@H](OC(C)=O)[C@H](O)[C@]12C)C3(C)C (some centres undefined) | 1.74 |
| CCOC(=O)N[C@@H](c1ccccc1)[C@@H](O)C(=O)O[C@H]1C[C@@]2(O)[C@@H](OC(=O)c3ccccc3)[C@H]3[C@@](C)([C@@H](O)CC4OC[C@]43OC(C)=O)[C@@H](O)[C@H](OC(C)=O)C(=C1C)C2(C)C (some centres undefined) | 0.82 |
| CC(=O)O[C@@]12COC1C[C@H](O)[C@@]1(C)C(=O)[C@H](O)C3=C(C)[C@@H](OC(=O)C(O)C(O)c4ccccc4)C[C@@](O)([C@@H](OC(=O)c4ccccc4)[C@@H]12)C3(C)C (some centres undefined) | 3 |
| CC(=O)O[C@H]1C(=O)[C@]2(C)[C@@H](O)CC3OC[C@@]3(OC(C)=O)[C@H]2[C@H](OC(=O)c2ccccc2)[C@]2(O)C[C@H](OC(=O)[C@H](O)[C@H](NC(=O)c3ccccc3)c3ccc(C)cc3)C(C)=C1C2(C)C (some centres undefined) | 0.8 |
| CO[C@H]1CC2OC[C@@]2(OC(C)=O)[C@H]2[C@H](OC(=O)c3ccccc3)[C@]3(O)C[C@H](OC(=O)[C@H](O)[C@@H](NC(=O)c4ccccc4)c4ccccc4)C(C)=C([C@@H](OC(C)=O)[C@H](O)[C@]12C)C3(C)C (some centres undefined) | 0.92 |
| CC(=O)O[C@H]1C(=O)[C@]2(C)[C@@H](O)CC3OC[C@@]3(OC(C)=O)[C@H]2[C@H](OC(=O)c2ccccc2)[C@]2(O)C[C@H](OC(=O)[C@H](O)[C@H](NC(=O)c3ccccc3)c3ccc(Cl)cc3)C(C)=C1C2(C)C (some centres undefined) | 2.4 |
| CC(=O)O[C@@]12COC1C[C@H](O)[C@@]1(C)C(=O)[C@H](O)C3=C(C)[C@@H](OC(=O)[C@@H](NC(=O)OC(C)(C)C)[C@@H](O)c4ccccc4)C[C@@](O)([C@@H](OC(=O)c4ccccc4)[C@@H]12)C3(C)C (some centres undefined) | 160 |
| C/C=C(/C)C(=O)N[C@H](c1ccccc1)[C@@H](O)C(=O)O[C@H]1C[C@@]2(O)[C@@H](OC(=O)c3ccccc3)[C@H]3[C@](C)(C(=O)[C@H](OC(C)=O)C(=C1C)C2(C)C)[C@@H](O)CC1OC[C@]13OC(C)=O (some centres undefined) | 1.5 |
| CC(=O)O[C@@]12COC1C[C@H](O)[C@@]1(C)C(=O)[C@H](O)C3=C(C)[C@@H](OC(=O)[C@@H](O)Cc4ccccc4)C[C@@](O)([C@@H](OC(=O)c4ccccc4)[C@@H]12)C3(C)C (some centres undefined) | 3.5 |
| CC(=O)O[C@@]12COC1C[C@H](O)[C@@]1(C)C(=O)C[C@@]34O[C@]3(C)[C@@H](OC(=O)[C@H](O)[C@@H](NC(=O)c3ccccc3)c3ccccc3)C[C@@](O)([C@@H](OC(=O)c3ccccc3)[C@@H]12)C4(C)C (some centres undefined) | 0.66 |
| CC(=O)O[C@H]1C(=O)[C@]2(C)[C@@H](O)CC3OC[C@@]3(OC(C)=O)[C@H]2[C@H](OC(=O)c2ccccc2)[C@]2(O)C[C@H](OC(=O)[C@@H](O)[C@@H](NC(=O)OC(C)(C)C)c3ccccc3)C(C)=C1C2(C)C (some centres undefined) | 30 |
| CC(=O)O[C@@]12COC1C[C@H](O)[C@@]1(C)C(=O)[C@H](O)C3=C(C)[C@@H](OC(=O)/C=C/c4ccccc4)C[C@@](O)([C@@H](OC(=O)c4ccccc4)[C@@H]12)C3(C)C (some centres undefined) | 23 |
| CC(=O)O[C@H]1C(=O)[C@]2(C)[C@@H](O)CC3OC[C@@]3(OC(C)=O)[C@H]2[C@H](OC(=O)c2ccccc2)[C@]2(O)C[C@H](OC(=O)[C@@H](NC(=O)OC(C)(C)C)[C@@H](O)c3ccccc3)C(C)=C1C2(C)C (some centres undefined) | 108 |
| CC(=O)O[C@@H]1C2=C(C)[C@@H](OC(=O)[C@H](O)[C@H](COc3ccccc3)NC(=O)c3ccccc3)C[C@@](O)([C@@H](OC(=O)c3ccccc3)[C@H]3[C@@](C)([C@@H](O)CC4OC[C@]43OC(C)=O)[C@H]1O)C2(C)C (some centres undefined) | 5.81 |
| CC(=O)O[C@@H]1C2=C(C)[C@@H](OC(=O)[C@H](O)[C@@H](NC(=O)OC(C)(C)C)c3ccccc3)C[C@@](O)([C@@H](OC(=O)c3ccccc3)[C@H]3[C@@](C)([C@@H](O)CC4OC[C@]43OC(C)=O)[C@H]1O)C2(C)C (some centres undefined) | 0.87 |
| CCCC[C@H](NC(=O)OC(C)(C)C)[C@@H](O)C(=O)O[C@H]1C[C@@]2(O)[C@@H](OC(=O)c3ccccc3)[C@H]3[C@@](C)([C@@H](O)CC4OC[C@]43OC(C)=O)[C@@H](O)[C@H](OC(C)=O)C(=C1C)C2(C)C (some centres undefined) | 9.74 |
